The results in this text go back to EP1905824A1, “A […] AND A METHOD FOR CELL […]” (Olympus Corporation, priority 2005, dated 2006).

Common to all, as to format: cell-based, human
For assay [1], the system named is ERE-GFP-E10 cell line. In words: Estrogen signal response assessment (GFP expression, fluorescence microscope / flow cytometer). The following applies: E2 10 nM, two days; compared with E2-untreated (low GFP expression level).
In assay [2] the test system is cell line in which only the pd2EGFP-1 vector having no ERE was stably introduced (pdE2-GFP-4). In words: Estrogen signal response assessment (GFP expression), control cell line without ERE. The following applies: E2 10 nM, two days; regardless of E2-treated/untreated.
In assay [3] the test system is MCF7 cell lines (clones) in which the ERE-GFP reporter gene having a sable GFP as the reporter was stably introduced. In words: GFP protein induction with/without estrogen (E2), stable-GFP reporter clones. The following applies: E2 10 nM, two days.
The test system of assay [4] is ERE-GFP-E10 cell line. In words: GFP expressing cell counting after addition of E2.
Assay [5] concerns ERE-GFP-E10 cell line. In words: MTT assay for living cell counts after addition of E2. The note with it: E2 0 to 300 pM; four days; absorbance at 560 nm. In general terms: Formazan colour is commonly taken as a measure of viable cells.
Assay [6] has as its system breast cancer tissue-derived adipose stromal cell and ERE-GFP-E10 cell. In words: Co-culture of breast cancer tissue-derived adipose stromal cell and ERE-GFP-E10, detection of estrogen signal. The note with it: testosterone, four days co-culture; compared with no addition of androgen; three breast cancer cases. Details: dose or concentration left out as unconfirmed.
The mark [7] stands for this setting: E2 3 pM or 1 nM, Day 1 to Day 4, regardless of the amount of E2 added.

For `C[C@]12CC[C@@H]3c4ccc(O)cc4CC[C@H]3[C@@H]1CC[C@@H]2O` [E2, 17 β estradiol], the “GFP expression level when E2-treated” value with ERE-GFP-E10 cell line [1] is given as “GFP well induced, having a high expression level”. The GFP expression entry in assay [2] was “no GFP expression”. Moreover, the “GFP expression positive cell rate (%) E2-added group” value in assay [3] (clone #16, E2-free group 85) turned out to be 88%; in assay [3] (clone #19, E2-free group 32), 73%; in assay [3] (clone #21, E2-free group 5), 8%; in assay [3] (clone #28, E2-free group 37), 41%; in assay [3] (clone #29, E2-free group 77), 83%; in assay [3] (clone #37, E2-free group 83), 84%. In addition, the “E2 concentration at which GFP expression induction was maximized” value in the assay with ERE-GFP-E10 cell line [4] (E2 0, 1, 3, 10, 30, 100, 300 pM, four days) amounted to 30 pM. The “day from which GFP expression was observed after the addition of E2” value with ERE-GFP-E10 cell line [4] (setting [7]) came to 1 days. Besides, the “day on which GFP expression positive cell count was maximized” value in the assay with ERE-GFP-E10 cell line [4] (setting [7]) came out at 2 days. Besides, in the assay with ERE-GFP-E10 cell line [4] (Homo sapiens, 96 h, E2 0, 1, 3, 10, 30, 100, 300 pM, four days, read-out: E2 concentration at which a significant level of GFP expression induction was detected), the minimal effective concentration amounted to 3e-06 µM. Moreover, in the assay on ERE-GFP-E10 cell line [5], the living cell count entry is “increased dependently on the added E2 concentration”.
As to `C[C@]12CC[C@H]3[C@@H](CCC4=CC(=O)CC[C@@]43C)[C@@H]1CC[C@@H]2O` [testosterone], the “GFP positive cell rate in the ERE-GFP-E10 cell” value in assay [6] is listed as “significantly increased”.
